ChEMBL document CHEMBL4229455, “Synthesis and anticancer activity of novel bisindolylhydroxymaleimide derivatives with potent GSK-3 kinase inhibition” (Bioorg Med Chem, 2018)
pIC50: −log10 of the molar value.

Tests used:
[1] = target: Receptor-interacting serine/threonine-protein kinase 3 (Homo sapiens, UniProt Q9Y572); assay: Inhibition of recombinant full length human RIPK3 expressed in baculovirus infected Sf9 insect cells using MBP as substrate in presence of [gamma-33P]ATP
[2] = target: CDK9/cyclin T1 (Homo sapiens, UniProt P50750); assay: Inhibition of recombinant full length human CDK9/cyclin T expressed in baculovirus infected Sf9 insect cells using YSPTSPSYSPTSPSYSPTSPSKKKK as substrate in presence of [gamma-33P]ATP
CDK9/cyclin T1, sequence (O60563 whole entry, the tested form may be a part): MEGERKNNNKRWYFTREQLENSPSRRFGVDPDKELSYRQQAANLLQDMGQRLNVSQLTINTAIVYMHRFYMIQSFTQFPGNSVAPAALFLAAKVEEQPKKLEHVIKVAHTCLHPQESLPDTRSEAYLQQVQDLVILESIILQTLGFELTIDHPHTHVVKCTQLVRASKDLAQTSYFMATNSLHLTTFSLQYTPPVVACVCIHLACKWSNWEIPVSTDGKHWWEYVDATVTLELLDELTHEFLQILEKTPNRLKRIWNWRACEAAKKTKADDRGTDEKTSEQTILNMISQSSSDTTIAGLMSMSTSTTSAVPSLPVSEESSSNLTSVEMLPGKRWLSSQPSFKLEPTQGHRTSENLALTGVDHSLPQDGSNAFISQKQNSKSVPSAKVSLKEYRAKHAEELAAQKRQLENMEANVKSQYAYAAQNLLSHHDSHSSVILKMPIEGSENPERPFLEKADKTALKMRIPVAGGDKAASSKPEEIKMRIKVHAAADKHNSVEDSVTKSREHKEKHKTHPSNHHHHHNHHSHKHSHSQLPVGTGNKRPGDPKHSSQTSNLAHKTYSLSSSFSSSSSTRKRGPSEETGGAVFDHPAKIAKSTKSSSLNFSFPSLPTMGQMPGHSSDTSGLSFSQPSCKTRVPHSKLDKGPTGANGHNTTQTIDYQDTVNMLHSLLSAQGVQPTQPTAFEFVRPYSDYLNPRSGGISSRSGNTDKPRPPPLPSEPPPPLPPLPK
CDK9/cyclin T1, sequence (P50750 whole entry, the tested form may be a part): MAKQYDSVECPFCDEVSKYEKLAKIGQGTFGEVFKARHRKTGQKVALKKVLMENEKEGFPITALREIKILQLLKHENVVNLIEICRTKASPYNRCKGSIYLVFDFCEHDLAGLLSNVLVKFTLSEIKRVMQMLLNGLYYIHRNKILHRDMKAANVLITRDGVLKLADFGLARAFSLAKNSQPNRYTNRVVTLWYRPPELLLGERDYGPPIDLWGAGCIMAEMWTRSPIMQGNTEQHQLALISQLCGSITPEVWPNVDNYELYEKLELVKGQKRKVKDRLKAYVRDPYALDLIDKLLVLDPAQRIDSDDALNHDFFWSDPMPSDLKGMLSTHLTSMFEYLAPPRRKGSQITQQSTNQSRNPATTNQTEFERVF

[3] = target: T1, Serine/threonine-protein kinase haspin (Homo sapiens) (UniProt Q8TF76); assay: Inhibition of recombinant human haspin kinase domain expressed in bacteria assessed as residual activity at 10 uM using histone H3 (1 to 21 residues) peptide as substrate in presence of [gamma-33P]ATP
T1 sequence (whole entry): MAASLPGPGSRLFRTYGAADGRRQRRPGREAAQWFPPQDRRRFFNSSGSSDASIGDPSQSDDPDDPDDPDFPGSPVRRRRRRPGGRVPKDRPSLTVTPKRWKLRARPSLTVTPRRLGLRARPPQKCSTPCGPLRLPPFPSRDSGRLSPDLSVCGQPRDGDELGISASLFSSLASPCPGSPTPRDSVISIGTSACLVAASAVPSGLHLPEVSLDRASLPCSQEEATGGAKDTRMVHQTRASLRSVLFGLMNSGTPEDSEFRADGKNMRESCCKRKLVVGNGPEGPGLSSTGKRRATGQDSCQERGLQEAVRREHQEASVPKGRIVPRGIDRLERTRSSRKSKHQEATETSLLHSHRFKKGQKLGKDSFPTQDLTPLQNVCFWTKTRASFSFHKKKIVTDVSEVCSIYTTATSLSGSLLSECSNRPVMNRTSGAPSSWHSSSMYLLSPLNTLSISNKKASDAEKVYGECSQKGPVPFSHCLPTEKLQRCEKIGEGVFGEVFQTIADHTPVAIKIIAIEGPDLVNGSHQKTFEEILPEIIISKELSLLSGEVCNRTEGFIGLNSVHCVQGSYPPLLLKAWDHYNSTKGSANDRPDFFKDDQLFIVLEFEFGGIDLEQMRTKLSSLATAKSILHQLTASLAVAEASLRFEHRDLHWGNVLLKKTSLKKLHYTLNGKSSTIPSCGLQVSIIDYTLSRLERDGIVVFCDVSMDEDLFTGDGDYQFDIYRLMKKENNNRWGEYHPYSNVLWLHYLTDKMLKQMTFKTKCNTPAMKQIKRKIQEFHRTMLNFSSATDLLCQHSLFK

[4] = test system: MOLT-4; assay: Cytotoxicity against human MOLT4 cells assessed as cell growth at 10 uM after 48 hrs by SRB assay relative to control; type: functional; conditions: MOLT-4, 48 h, read-out: Activity
[5] = test system: RPMI-8226; assay: Cytotoxicity against human RPMI8226 cells assessed as cell growth at 10 uM after 48 hrs by SRB assay relative to control; type: functional; conditions: RPMI-8226, 48 h, read-out: Activity
[6] = test system: SR; assay: Cytotoxicity against human SR cells assessed as cell growth at 10 uM after 48 hrs by SRB assay relative to control; type: functional; conditions: read-out: Activity
[7] = test system: HCC 2998; assay: Cytotoxicity against human HCC2998 cells assessed as cell growth at 10 uM after 48 hrs by SRB assay relative to control; type: functional; conditions: HCC 2998, 48 h, read-out: Activity
[8] = test system: HCT-116; assay: Cytotoxicity against human HCT116 cells assessed as cell growth at 10 uM after 48 hrs by SRB assay relative to control; type: functional; conditions: HCT-116, 48 h, read-out: Activity
[9] = test system: SW-620; assay: Cytotoxicity against human SW620 cells assessed as cell growth at 10 uM after 48 hrs by SRB assay relative to control; type: functional; conditions: SW-620, 48 h, read-out: Activity
[10] = test system: SF-295; assay: Cytotoxicity against human SF295 cells assessed as cell growth at 10 uM after 48 hrs by SRB assay relative to control; type: functional; conditions: SF-295, 48 h, read-out: Activity
[11] = test system: M14; assay: Cytotoxicity against human M14 cells assessed as cell growth at 10 uM after 48 hrs by SRB assay relative to control; type: functional; conditions: M14, 48 h, read-out: Activity
[12] = test system: MDA-MB-435; assay: Cytotoxicity against human MDA-MB-435 cells assessed as cell growth at 10 uM after 48 hrs by SRB assay relative to control; type: functional; conditions: MDA-MB-435, 48 h, read-out: Activity
[13] = test system: SK-MEL-2; assay: Cytotoxicity against human SK-MEL-2 cells assessed as cell growth at 10 uM after 48 hrs by SRB assay relative to control; type: functional; conditions: SK-MEL-2, 48 h, read-out: Activity
[14] = test system: UACC-62; assay: Cytotoxicity against human UACC62 cells assessed as cell growth at 10 uM after 48 hrs by SRB assay relative to control; type: functional; conditions: UACC-62, 48 h, read-out: Activity
[15] = test system: OVCAR-3; assay: Cytotoxicity against human OVCAR3 cells assessed as cell growth at 10 uM after 48 hrs by SRB assay relative to control; type: functional; conditions: OVCAR-3, 48 h, read-out: Activity
[16] = test system: PC-3; assay: Cytotoxicity against human PC3 cells assessed as cell growth at 10 uM after 48 hrs by SRB assay relative to control; type: functional; conditions: PC-3, 48 h, read-out: Activity
[17] = test system: MDA-MB-231; assay: Cytotoxicity against human MDA-MB-231 cells assessed as cell growth at 10 uM after 48 hrs by SRB assay relative to control; type: functional; conditions: MDA-MB-231, 48 h, read-out: Activity
[18] = test system: Hs-578T; assay: Cytotoxicity against human Hs 578T cells assessed as cell growth at 10 uM after 48 hrs by SRB assay relative to control; type: functional; conditions: read-out: Activity
[19] = test system: T47D; assay: Cytotoxicity against human T47D cells assessed as cell growth at 10 uM after 48 hrs by SRB assay relative to control; type: functional; conditions: read-out: Activity
[20] = test system: MDA-MB-468; assay: Cytotoxicity against human MDA-MB-468 cells assessed as cell growth at 10 uM after 48 hrs by SRB assay relative to control; type: functional; conditions: MDA-MB-468, 48 h, read-out: Activity
[21] = test system: NCI-H522; assay: Cytotoxicity against human NCI-H522 cells assessed as cell growth at 10 uM after 48 hrs by SRB assay relative to control; type: functional; conditions: NCI-H522, 48 h, read-out: Activity
[22] = test system: Malme-3M; assay: Cytotoxicity against human MALME-3M cells assessed as cell growth at 10 uM after 48 hrs by SRB assay relative to control; type: functional; conditions: read-out: Activity
[23] = test system: EKVX; assay: Cytotoxicity against human EKVX cells assessed as cell growth at 10 uM after 48 hrs by SRB assay relative to control; type: functional; conditions: read-out: Activity

Receptor-interacting serine/threonine-protein kinase 3, sequence (Q9Y572 whole entry): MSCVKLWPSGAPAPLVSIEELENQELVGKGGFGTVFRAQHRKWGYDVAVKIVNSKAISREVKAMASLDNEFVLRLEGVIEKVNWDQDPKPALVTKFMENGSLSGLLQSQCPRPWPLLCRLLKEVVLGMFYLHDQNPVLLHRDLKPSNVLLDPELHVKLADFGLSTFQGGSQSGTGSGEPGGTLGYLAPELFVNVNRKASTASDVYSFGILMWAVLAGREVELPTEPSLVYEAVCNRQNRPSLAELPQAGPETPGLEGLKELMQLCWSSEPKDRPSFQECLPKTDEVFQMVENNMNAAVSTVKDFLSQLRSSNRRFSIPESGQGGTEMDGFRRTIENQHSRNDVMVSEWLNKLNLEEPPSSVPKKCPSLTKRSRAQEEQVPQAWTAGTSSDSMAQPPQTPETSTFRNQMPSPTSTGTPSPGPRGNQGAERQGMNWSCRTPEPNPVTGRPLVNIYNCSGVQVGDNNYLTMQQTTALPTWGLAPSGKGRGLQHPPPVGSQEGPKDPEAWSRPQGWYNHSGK

Compound	pIC50 [1]	pIC50 [2]	Activity [3] [%]	growth at 10 µM [4] [%]	growth at 10 µM [5] [%]	growth at 10 µM [6] [%]	growth at 10 µM [7] [%]	growth at 10 µM [8] [%]	growth at 10 µM [9] [%]	growth at 10 µM [10] [%]	growth at 10 µM [11] [%]	growth at 10 µM [12] [%]	growth at 10 µM [13] [%]	growth at 10 µM [14] [%]	growth at 10 µM [15] [%]	growth at 10 µM [16] [%]	growth at 10 µM [17] [%]	growth at 10 µM [18] [%]	growth at 10 µM [19] [%]	growth at 10 µM [21] [%]	other results
Cn1cc(C2=C(c3cn(CCCCCC#N)c4ccccc34)C(=O)N(O)C2=O)c2ccccc21	< 5.00	5.68	114	95.7	71.2	67.2	111	85.1	101	107	100	68.1	94.1	82	93.6	80.5	58.9	93.5	78.5	–	growth at 10 µM [20]: 87.5%
CC(C)n1cc(C2=C(c3c[nH]c4ccccc34)C(=O)N(O)C2=O)c2ccccc21	< 5.00	< 5.00	123	77	56.9	85.7	105	85.4	106	99.7	98.9	102	86.8	90	92.7	99.7	89.5	111	86.7	76.4	growth at 10 µM [22]: 102%
N#CCCCCCn1cc(C2=C(c3cn(CCCCCC#N)c4ccccc34)C(=O)NC2=O)c2ccccc21	< 5.00	6.38	134	–	86.8	–	107	65.9	108	66.2	125	105	96.5	99.3	72.7	58	81.4	59.7	67.6	88.7	growth at 10 µM [23]: 86.5%; growth at 10 µM [22]: 121%; growth at 10 µM [20]: 63.3%
Cn1cc(C2=C(c3cn(C)c4ccccc34)C(=O)N(O)C2=O)c2ccccc21	< 5.00	5.05	118	101	79.3	75.4	106	99.9	95.9	104	105	94.9	102	–	111	–	98	95.8	96.4	98.4	growth at 10 µM [22]: 118%; growth at 10 µM [20]: 86.4%
O=C(O)CCCCCn1cc(C2=C(c3c[nH]c4ccccc34)C(=O)N(O)C2=O)c2ccccc21	< 5.00	5.70	113	99.7	101	100	119	98.9	95.3	105	92.9	102	99.4	95.7	99.3	84.9	92.6	103	96.2	88.3	growth at 10 µM [20]: 104%
O=C1C2=C(C(=O)N1O)c1cn(c3ccccc13)CCCCCCn1cc2c2ccccc21	< 5.00	< 5.00	134	110	92.9	91.9	110	115	98.6	107	102	111	120	100	106	95.8	104	97.2	104	108	growth at 10 µM [23]: 103%; growth at 10 µM [22]: 105%; growth at 10 µM [20]: 97.5%
Cn1cc(C2=C(c3cn(CCCCCC(=O)O)c4ccccc34)C(=O)N(O)C2=O)c2ccccc21	< 5.00	6.15	103	92.6	96.8	89.6	110	98.4	98.9	102	103	102	–	99	104	76.6	84.7	102	85.4	88.3	growth at 10 µM [20]: 102%
CC(C)n1cc(C2=C(c3cn(C)c4ccccc34)C(=O)N(O)C2=O)c2ccccc21	< 5.00	5.82	127	82.4	68.3	–	110	85.4	101	101	94.8	104	86.6	78.2	87.6	88.4	70.1	91.2	87.3	84.7	growth at 10 µM [22]: 89%
Cn1cc(C2=C(c3c[nH]c4ccccc34)C(=O)N(O)C2=O)c2ccccc21	< 5.00	5.70	112	79	51.7	30.9	89.9	83.3	87.7	88.8	81	17.1	76.4	77.4	84.7	78.7	59.5	96.3	60.9	56.3	growth at 10 µM [22]: 68.7%
